Laboratory results: PMC10004634 (PLOS ONE, 2023)
Read-outs that look alike come from different tables or passages of the source.

Columns and labels:
Test in all cases: biochemical
Set-up in all cases: KINOMEscan scanMAX competition binding, DNA-tagged kinases, qPCR read-out, percent control at 300 nM
EPHA3 = molecular target: T1, EPHA3 (Homo sapiens, UniProt P29320)
T1 sequence (P29320 1-983): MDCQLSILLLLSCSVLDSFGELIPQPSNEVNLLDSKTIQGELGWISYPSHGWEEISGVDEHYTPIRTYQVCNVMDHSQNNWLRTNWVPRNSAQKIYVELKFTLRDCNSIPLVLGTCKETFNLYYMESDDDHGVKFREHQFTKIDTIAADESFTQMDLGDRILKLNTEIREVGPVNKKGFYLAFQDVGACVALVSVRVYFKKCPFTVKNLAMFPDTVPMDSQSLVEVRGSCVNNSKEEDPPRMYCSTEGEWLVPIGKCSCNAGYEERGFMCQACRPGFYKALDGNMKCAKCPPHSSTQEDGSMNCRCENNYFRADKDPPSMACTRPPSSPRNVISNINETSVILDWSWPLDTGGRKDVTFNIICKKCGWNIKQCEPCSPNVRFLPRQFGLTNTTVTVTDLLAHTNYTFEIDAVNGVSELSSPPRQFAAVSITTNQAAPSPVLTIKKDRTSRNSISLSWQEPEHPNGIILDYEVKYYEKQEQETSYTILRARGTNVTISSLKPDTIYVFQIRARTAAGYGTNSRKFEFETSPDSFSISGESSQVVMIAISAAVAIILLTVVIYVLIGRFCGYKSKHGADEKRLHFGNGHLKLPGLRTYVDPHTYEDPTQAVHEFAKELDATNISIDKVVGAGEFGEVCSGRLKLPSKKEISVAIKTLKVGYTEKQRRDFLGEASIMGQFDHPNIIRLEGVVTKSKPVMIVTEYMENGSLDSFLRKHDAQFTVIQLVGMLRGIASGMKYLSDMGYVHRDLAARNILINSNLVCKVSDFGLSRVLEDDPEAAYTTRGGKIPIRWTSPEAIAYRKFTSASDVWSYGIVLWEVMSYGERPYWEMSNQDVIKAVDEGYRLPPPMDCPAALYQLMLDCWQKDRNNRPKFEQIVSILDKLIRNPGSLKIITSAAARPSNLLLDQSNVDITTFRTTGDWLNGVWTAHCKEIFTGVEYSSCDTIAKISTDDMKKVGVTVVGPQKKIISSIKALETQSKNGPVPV

DDR2 = molecular target: T2, DDR2 (Homo sapiens, UniProt Q16832)
T2 sequence (Q16832 1-855): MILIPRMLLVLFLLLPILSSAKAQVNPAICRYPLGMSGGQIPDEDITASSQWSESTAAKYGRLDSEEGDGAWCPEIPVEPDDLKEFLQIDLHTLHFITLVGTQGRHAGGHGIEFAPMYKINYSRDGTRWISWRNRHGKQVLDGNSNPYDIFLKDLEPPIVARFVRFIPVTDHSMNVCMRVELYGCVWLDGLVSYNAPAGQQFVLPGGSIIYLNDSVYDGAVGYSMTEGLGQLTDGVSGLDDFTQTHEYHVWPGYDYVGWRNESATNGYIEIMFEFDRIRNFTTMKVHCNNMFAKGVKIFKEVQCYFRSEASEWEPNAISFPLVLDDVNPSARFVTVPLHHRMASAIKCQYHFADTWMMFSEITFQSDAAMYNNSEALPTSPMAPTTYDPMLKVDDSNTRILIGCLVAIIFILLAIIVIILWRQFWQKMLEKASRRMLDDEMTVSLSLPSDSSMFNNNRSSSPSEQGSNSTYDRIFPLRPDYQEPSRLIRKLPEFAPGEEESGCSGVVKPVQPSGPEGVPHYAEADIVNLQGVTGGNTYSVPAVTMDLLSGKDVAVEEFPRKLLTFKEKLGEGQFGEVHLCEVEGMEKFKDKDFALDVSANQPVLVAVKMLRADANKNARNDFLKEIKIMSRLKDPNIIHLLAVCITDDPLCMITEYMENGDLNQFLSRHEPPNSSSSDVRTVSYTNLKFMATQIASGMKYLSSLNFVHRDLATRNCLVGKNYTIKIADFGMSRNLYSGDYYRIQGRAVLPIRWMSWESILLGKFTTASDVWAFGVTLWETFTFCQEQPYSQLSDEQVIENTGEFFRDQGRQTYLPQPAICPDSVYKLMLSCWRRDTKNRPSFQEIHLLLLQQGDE

YANK2 = molecular target: T3, YANK2 (Homo sapiens, UniProt Q9NY57)
T3 construct: gene STK32B

[1] = molecular target: T4, ABL1(F317I)-nonphosphorylated (Homo sapiens, UniProt P00519, F317I)
T4 construct: nonphosphorylated

[2] = read-out: Percent control / Acalabrutinib
[3] = read-out: Percent control / Ibrutinib
[4] = read-out: Percent control / Tirabrutinib
[5] = read-out: Percent control / Zanubrutinib

T3 sequence (Q9NY57 whole entry): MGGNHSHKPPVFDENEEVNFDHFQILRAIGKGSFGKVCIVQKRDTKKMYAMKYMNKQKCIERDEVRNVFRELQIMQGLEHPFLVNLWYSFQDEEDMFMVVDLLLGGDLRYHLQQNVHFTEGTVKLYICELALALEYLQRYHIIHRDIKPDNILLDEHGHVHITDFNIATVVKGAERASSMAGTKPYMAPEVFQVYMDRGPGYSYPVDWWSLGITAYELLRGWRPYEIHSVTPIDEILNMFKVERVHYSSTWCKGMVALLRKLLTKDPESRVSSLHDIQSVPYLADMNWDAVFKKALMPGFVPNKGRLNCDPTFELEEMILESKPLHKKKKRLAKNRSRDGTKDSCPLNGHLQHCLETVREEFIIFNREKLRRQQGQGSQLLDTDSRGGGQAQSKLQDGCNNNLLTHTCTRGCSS
T4 sequence (P00519 whole entry F317I): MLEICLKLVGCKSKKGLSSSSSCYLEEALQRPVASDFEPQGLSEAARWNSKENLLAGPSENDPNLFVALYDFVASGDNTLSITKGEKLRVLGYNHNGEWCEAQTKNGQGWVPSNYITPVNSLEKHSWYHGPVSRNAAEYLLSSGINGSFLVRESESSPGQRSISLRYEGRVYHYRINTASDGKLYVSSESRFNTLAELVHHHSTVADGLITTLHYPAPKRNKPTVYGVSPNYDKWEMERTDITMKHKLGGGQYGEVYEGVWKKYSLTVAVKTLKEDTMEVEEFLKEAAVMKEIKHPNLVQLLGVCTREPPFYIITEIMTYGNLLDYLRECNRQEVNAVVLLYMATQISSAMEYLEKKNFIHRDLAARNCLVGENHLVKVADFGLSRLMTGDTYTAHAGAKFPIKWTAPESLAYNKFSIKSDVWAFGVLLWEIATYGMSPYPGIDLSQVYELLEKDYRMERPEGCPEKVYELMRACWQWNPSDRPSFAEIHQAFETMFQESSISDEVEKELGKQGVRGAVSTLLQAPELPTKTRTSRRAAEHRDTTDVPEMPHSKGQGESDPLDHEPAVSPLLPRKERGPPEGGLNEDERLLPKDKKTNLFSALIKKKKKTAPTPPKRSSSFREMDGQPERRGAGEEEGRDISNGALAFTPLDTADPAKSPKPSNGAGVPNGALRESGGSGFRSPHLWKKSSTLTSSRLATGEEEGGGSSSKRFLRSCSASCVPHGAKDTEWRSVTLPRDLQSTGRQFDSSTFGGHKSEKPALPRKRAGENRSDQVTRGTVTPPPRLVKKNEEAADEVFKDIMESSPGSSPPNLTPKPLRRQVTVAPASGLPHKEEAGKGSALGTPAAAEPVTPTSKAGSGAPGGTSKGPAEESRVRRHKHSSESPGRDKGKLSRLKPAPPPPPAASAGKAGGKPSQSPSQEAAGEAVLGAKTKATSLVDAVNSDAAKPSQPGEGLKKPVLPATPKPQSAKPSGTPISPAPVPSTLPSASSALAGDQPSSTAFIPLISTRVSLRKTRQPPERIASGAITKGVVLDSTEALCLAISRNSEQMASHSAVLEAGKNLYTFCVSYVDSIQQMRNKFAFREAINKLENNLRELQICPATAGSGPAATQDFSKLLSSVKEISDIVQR

`CC#CC(=O)N1CCC[C@H]1c1nc(-c2ccc(C(=O)Nc3ccccn3)cc2)c2c(N)nccn12` [Acalabrutinib] showed a remaining binding at 0.3 µM (EPHA3; [2]) of 74%, a remaining binding at 0.3 µM (DDR2; [2]) of 95% and a remaining binding at 0.3 µM (YANK2; [2]) of 89%. For the same molecule, the remaining binding at 0.3 µM [1, 2] was 81%.
With `C=CC(=O)N1CCC[C@@H](n2nc(-c3ccc(Oc4ccccc4)cc3)c3c(N)ncnc32)C1` [Ibrutinib] the remaining binding at 0.3 µM (EPHA3; [3]) was 82%, the remaining binding at 0.3 µM (DDR2; [3]) was 80% and the remaining binding at 0.3 µM (YANK2; [3]) was 76%. For the same molecule, the remaining binding at 0.3 µM [1, 3] was 42%.
Work on `CC#CC(=O)N1CC[C@@H](n2c(=O)n(-c3ccc(Oc4ccccc4)cc3)c3c(N)ncnc32)C1` [Tirabrutinib] yielded a remaining binding at 0.3 µM (EPHA3; [4]) of 92%, a remaining binding at 0.3 µM (DDR2; [4]) of 88% and a remaining binding at 0.3 µM (YANK2; [4]) of 87%. For the same molecule, the remaining binding at 0.3 µM [1, 4] was 77%.
For `C=CC(=O)N1CCC([C@@H]2CCNc3c(C(N)=O)c(-c4ccc(Oc5ccccc5)cc4)nn32)CC1` [Zanubrutinib], the remaining binding at 0.3 µM (EPHA3; [5]) was 75% and the remaining binding at 0.3 µM (YANK2; [5]) was 96%.
